Here are results for 13 molecules from US9249453B2, “Method for identifying a malodor inhibitor” (Kao Corporation, priority 2011, dated 2016).

Assay type in all cases: cell-based
One test deals with T1, OR8H1 (Homo sapiens, UniProt Q8NGG4).
T1 construct: expressed in transfected cells; host or cells: HEK293
T1 sequence (Q8NGG4 1-311): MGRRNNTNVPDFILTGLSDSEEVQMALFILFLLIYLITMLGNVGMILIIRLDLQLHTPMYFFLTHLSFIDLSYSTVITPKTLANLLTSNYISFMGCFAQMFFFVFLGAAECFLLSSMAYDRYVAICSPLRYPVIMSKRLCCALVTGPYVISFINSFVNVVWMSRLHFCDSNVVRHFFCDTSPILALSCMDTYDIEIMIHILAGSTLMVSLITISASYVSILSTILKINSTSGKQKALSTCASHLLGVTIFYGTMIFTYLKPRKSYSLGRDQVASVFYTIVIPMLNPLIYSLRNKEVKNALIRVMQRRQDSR
Kind of test: Luciferase reporter assay: suppression of the skatole response of OR8H1 expressed in HEK293 cells. To be noted: test substance 100 μM mixed with 300 μM skatole, HEK293 cells expressing OR8H1; for inhibition at 100 µM: 4 h, read-out: Inhibition rate 8H1. How it is done: (§1) A reaction solution having a composition shown in Table 1 was prepared on a clean bench, and left to stand for 15 minutes. The solution was dispensed to each well of a 96-well plate (BD). Subsequently, HEK293 cells (100 μL, 3×10^5 cells/cm^2) were seeded in each well and cultured for 24 hours in an incubator at 37° C. and under 5% CO2 conditions.
(§2) The olfactory receptor expressed in HEK293 cells activates adenylate cyclase with the aid of Gαs present in cells, to thereby increase intracellular cAMP level. In this study, odorant response was measured by a luciferase reporter gene assay which monitored the intracellular cAMP level as the luminescence value derived from a firefly luciferase gene (fluc2P-CRE-hygro). Also, a Renilla luciferase gene fused downstream of a CMV promoter (hRluc-CMV) was also transfected to HEK293 cells as an internal standard to correct errors in gene transfer efficiency and number of cells.
(§3) Cell culturing was performed for four hours in a CO2-incubator, whereby the luciferase gene sufficiently expressed in the cells. Luciferase activity was measured by means of a Dual-Glo™ luciferase assay system (promega) according to an instruction manual thereof. The luminescence value derived from firefly luciferase induced by odorant stimulation was divided by the luminescence value of cells which were not stimulated with odorants. The thus-obtained—called “fold increase”—was employed as an index for response intensity.
(§4) The response inhibition rate of a test substance was calculated as follows. Firstly, luminescence value derived from firefly luciferase induced by stimulation with skatole (X), and luminescence value in cells which expressed the same receptor but were not stimulated with skatole (Y) were determined. By subtracting Y from X, the receptor activity by stimulation with skatole alone (X−Y) was determined. Similarly, the luminescence value induced by stimulation with a mixture of skatole and a test substance (Z) was determined. Through subtracting Y (the luminescence value in cells which expressed the same receptor but were not stimulated with skatole) from Z, the receptor activity (Z−Y) by stimulation with a mixture of skatole and the test substance was obtained. From the thus-obtained receptor activity by stimulation with skatole alone (X−Y) and the receptor activity in the presence of a test material (Z−Y), the response inhibition rate of the test substance was calculated by the following equation: Inhibition rate (%)={1−(Z−Y)/(X−Y)}×100.
(§5) In each case, multiple independent experiments were performed in duplicate, and the average of each experiment was used.

In the next test the target is T2, OR2W1 (Homo sapiens, UniProt Q9Y3N9).
T2 construct: expressed in transfected cells; host or cells: HEK293
T2 sequence (Q9Y3N9 1-320): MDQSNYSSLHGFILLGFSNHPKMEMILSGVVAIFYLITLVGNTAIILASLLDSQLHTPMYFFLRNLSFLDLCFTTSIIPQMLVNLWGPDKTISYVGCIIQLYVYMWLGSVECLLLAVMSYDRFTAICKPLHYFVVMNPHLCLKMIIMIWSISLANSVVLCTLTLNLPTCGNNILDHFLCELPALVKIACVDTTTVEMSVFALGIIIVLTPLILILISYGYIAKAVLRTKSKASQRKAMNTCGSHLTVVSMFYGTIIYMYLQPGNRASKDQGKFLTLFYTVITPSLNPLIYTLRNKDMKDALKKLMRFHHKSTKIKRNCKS
Kind of test: Luciferase reporter assay: suppression of the skatole response of OR2W1 expressed in HEK293 cells. To be noted: test substance 100 μM mixed with 300 μM skatole, HEK293 cells expressing OR2W1; for inhibition at 100 µM: 4 h, read-out: Inhibition rate 2W1. How it is done: as §1, §2, §3, §4, §5
In general terms: A reporter such as luciferase makes a cellular process visible.

The target in a further test is T3, OR5K1 (Homo sapiens, UniProt Q8NHB7).
T3 construct: expressed in transfected cells; host or cells: HEK293
T3 sequence (Q8NHB7 1-308): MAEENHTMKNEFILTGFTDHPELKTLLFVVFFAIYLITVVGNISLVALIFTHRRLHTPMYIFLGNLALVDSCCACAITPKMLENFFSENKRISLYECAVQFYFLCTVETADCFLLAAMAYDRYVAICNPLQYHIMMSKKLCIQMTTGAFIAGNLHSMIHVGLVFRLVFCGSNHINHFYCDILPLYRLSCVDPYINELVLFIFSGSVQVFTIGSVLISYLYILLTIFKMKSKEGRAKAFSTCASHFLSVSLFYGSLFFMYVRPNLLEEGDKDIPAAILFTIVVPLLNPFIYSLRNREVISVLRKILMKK
The experiment in a line: Luciferase reporter assay: suppression of the skatole response of OR5K1 expressed in HEK293 cells. To be noted: test substance 100 μM mixed with 300 μM skatole, HEK293 cells expressing OR5K1; for inhibition at 100 µM: 4 h, read-out: Inhibition rate 5K1. As to the method:
as §1, §2, §3, §4, §5

A further test addresses T4, OR5P3 (Homo sapiens, UniProt Q8WZ94).
T4 construct: expressed in transfected cells; host or cells: HEK293
T4 sequence (Q8WZ94 1-311): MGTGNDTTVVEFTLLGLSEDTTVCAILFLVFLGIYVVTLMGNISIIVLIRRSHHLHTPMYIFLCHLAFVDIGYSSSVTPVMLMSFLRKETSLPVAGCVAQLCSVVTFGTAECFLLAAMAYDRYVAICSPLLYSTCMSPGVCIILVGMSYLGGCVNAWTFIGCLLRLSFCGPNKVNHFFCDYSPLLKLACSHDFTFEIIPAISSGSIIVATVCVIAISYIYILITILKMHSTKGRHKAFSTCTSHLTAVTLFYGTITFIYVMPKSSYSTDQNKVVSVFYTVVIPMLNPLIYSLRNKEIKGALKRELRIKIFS
Kind of test: Luciferase reporter assay: suppression of the skatole response of OR5P3 expressed in HEK293 cells. To be noted: test substance 100 μM mixed with 300 μM skatole, HEK293 cells expressing OR5P3. How it is done: as §1, §2, §3, §4, §5

SMILES strings stand for the structures. Where only a bound is given, the exact number is not on record here.

As for `CC1(C)CCCC2=C1CC(C=O)CC2` (stereo not shown) [Cyclemone A, 1,2,3,4,5,6,7,8-octahydro-8,8-dimethyl-2-naphthaldehyde], the inhibition – broadly, the change of the read-out against control, counted positive when it falls – at 100 µM was 20 to 50% on OR8H1, 50 to 80% on OR2W1 and 20 to 50% at OR5K1. For the same molecule, the “Inhibition rate 5P3” value on OR5P3 is “C (C >20%)”.

Regarding `CC(=O)C1=C(C)C2CC3(C1)C(C)CCC3C2(C)C` (stereo not shown) [acetylcedrene, 1-(2,3,4,7,8,8a-Hexahydro-3,6,8,8-tetramethyl-1H-3a,7-methanoazulen-5-yl)-ethanone], the inhibition at 100 µM on OR8H1, at OR2W1 and on OR5K1 was more than 80% in each case. Moreover, the “Inhibition rate 5P3” value on OR5P3 is listed as “A (A >80%)”.

For `CC(C)c1cccc(C(C)CC=O)c1` (stereo not drawn) [Florhydral, β-Methyl-3-(1-methylethyl)benzenepropanal], the inhibition at 100 µM at OR8H1, at OR2W1 and on OR5K1 was 50 to 80% in each case. Further, on OR5P3, the “Inhibition rate 5P3” value is reported as “B (B >50%)”.

Turning to `C=CCCC(=O)C1=CCCC(C)(C)C1` [Dinascone, 1-(5,5-Dimethyl-cyclohexen-1-yl)-4-penten-1-one], the inhibition at 100 µM is more than 80% on OR8H1, more than 80% on OR2W1 and 50 to 80% at OR5K1. Moreover, the “Inhibition rate 5P3” value at OR5P3 is listed as “B (B >50%)”.

For the molecule `CC(C=O)C1CCCCC1` (stereo not shown) [Pollenal II, 2-Cyclohexylpropanal], the inhibition at 100 µM on OR8H1 was less than 20%; at OR2W1, 20 to 50%; on OR5K1, 20 to 50%. Moreover, the “Inhibition rate 5P3” value on OR5P3 is listed as “C (C >20%)”.

With `O=C1CCCCCCCCCCCCCCO1` [pentalide, Oxacyclohexadecan-2-one], the inhibition at 100 µM was more than 80% on OR8H1, 50 to 80% at OR2W1 and 50 to 80% on OR5K1. Also, at OR5P3, the “Inhibition rate 5P3” value is reported as “B (B >50%)”.

For the molecule `CC(CO)CC(C)c1ccccc1` (stereo not shown) [Pumple fleur, 2-Methyl-4-phenylpentanol], the results for the inhibition at 100 µM at OR8H1, on OR2W1 and on OR5K1 were 50 to 80%, less than 20% and 20 to 50%, respectively. Also, at OR5P3, the “Inhibition rate 5P3” value was “A (A >80%)”.

With `C=C1CCCC(C)(C)C1C=CC(=O)CC` (stereo not shown) [γ-methylionone, 1-(2,2-Dimethyl-6-methylencyclohexyl)-1-penten-3-one], the inhibition at 100 µM on OR8H1, on OR2W1 and at OR5K1 was 50 to 80% each time. In addition, the “Inhibition rate 5P3” value on OR5P3 was “C (C >20%)”.

`CC=CC(=O)C1C(C)C=CCC1(C)C` (stereo not shown) [δ-damascones, 1-(2,6,6-Trimethyl-3-cyclohexenyl)-2-buten-1-one]: the inhibition at 100 µM at OR8H1, on OR2W1 and at OR5K1 was 20 to 50% each time. The “Inhibition rate 5P3” value at OR5P3 is given as “C (C >20%)”.

On to `CCC(O)COC1CCCCC1C(C)(C)C` (stereo not shown) [Ambercore, 1-(2-tert-Butylcyclohexyloxy)-2-butanol], for which the figures for the inhibition at 100 µM at OR8H1, on OR2W1 and on OR5K1 were more than 80%, more than 80% and 50 to 80%, respectively. Besides, the “Inhibition rate 5P3” value on OR5P3 is recorded as “B (B >50%)”.

Take `CC(C=O)Cc1ccc(C(C)(C)C)cc1` (stereo not drawn) [lilial, p-tert-Butyl-α-methyl hydrocinnamic aldehyde]: the “Inhibition rate 8H1” value on OR8H1 is reported as “C (C >20%)”. The “Inhibition rate 2W1” value at OR2W1 is “C (C >20%)”. In addition, the “Inhibition rate 5K1” value at OR5K1 is “C (C >20%)”. Besides, on OR5P3, the “Inhibition rate 5P3” value is “C (C >20%)”.

As to `Cc1ccc(C(C)C)c(O)c1` [thymol, 5-Methyl-2-(1-methylethyl)-phenol], the inhibition at 100 µM was 20 to 50% at OR8H1, 20 to 50% at OR2W1 and more than 80% on OR5K1. Further, the “Inhibition rate 5P3” value at OR5P3 is recorded as “A (A >80%)”.

For `CC1COCc2cc3c(cc21)C(C)(C)C(C)C3(C)C` (stereo not shown) [Galaxolide, 1,3,4,6,7,8-Hexahydro-4,6,6,7,8,8-hexamethylcyclopenta-γ-2-benzopyran], the inhibition at 100 µM at OR8H1 is more than 80%; on OR2W1, 50 to 80%; on OR5K1, more than 80%. Besides, the “Inhibition rate 5P3” value on OR5P3 is “C (C >20%)”.
